Like-named read-outs stand apart in the source and are kept apart here.
Key:
HCV-Luc = HCV-Luc infection assay; format: cell-based; settings: Hepatitis C virus
in vitro = settings: human
Text: EC50 was generated using the HCV-Luc infection assay and IC50 using the ATPLite assay.
EC50 was generated using the HCV-Luc infection assay and TC50 using the ATPLite assay.
The cytotoxicity of the compounds was further evaluated in HepG2 cells and primary human hepatocytes.

SMILES | EC50 (HCV-Luc) [µM] | CC50 (in vitro) [µM] | EC50 (HCV-Luc; Table 6, read-out: EC50) [µM]
Fc1ccc(CN2CCC(N(CCc3ccccc3)Cc3ccccc3)CC2)cc1 [4-Fluorobenzyl, N-Benzyl-1-(4-fluorobenzyl)-N-phenethylpiperidin-4-amine] | 9.6 | 56.3 | –
COc1ccc(CN2CCC(N(CCc3ccccc3)Cc3ccccc3)CC2)cc1 [4-Methoxybenzyl, N-Benzyl-1-(4-methoxybenzyl)-N-phenethylpiperidin-4-amine] | 4.35 | 27.8 | –
COC(=O)c1ccc(CN2CCC(N(CCc3ccccc3)Cc3ccccc3)CC2)cc1 [4-Methoxycarbonylbenzyl, Methyl 4-((4-(benzyl(phenethyl)amino)piperidin-1-yl)methyl)benzoate] | – | > 100 | 14
Cc1ccc(CN2CCC(N(CCc3ccccc3)Cc3ccccc3)CC2)cc1 [4-Methylbenzyl, N-Benzyl-1-(4-methylbenzyl)-N-phenethylpiperidin-4-amine] | – | 40.3 | 0.74
c1ccc(CCN(Cc2ccccc2)C2CCN(Cc3ccc(-c4ccccc4)cc3)CC2)cc1 [4-Phenylbenzyl, 1-([1,1′-Biphenyl]-4-ylmethyl)-N-benzyl-N-phenethylpiperidin-4-amine] | – | > 100 | 12.2
FC(F)(F)c1ccc(CN2CCC(N(CCc3ccccc3)Cc3ccccc3)CC2)cc1 [4-Trifluoromethylbenzyl, N-Benzyl-N-phenethyl-1-(4-(trifluoromethyl)benzyl)piperidin-4-amine] | – | > 100 | > 10
CC(=O)N1CCC(N(CCc2ccccc2)Cc2ccccc2)CC1 [Acetyl, 1-(4-(Benzyl(phenethyl)amino)piperidin-1-yl)ethanone] | – | 74.5 | > 31.6
O=C(c1ccccc1)N1CCC(N(CCc2ccccc2)Cc2ccccc2)CC1 [Benzoyl, (4-(Benzyl(phenethyl)amino)piperidin-1-yl)(phenyl)methanone] | – | 94 | 24.8
c1ccc(CCN(Cc2ccccc2)C2CCN(Cc3ccccc3)CC2)cc1 [Benzyl, N,1-dibenzyl-N-phenethylpiperidin-4-amine] | – | 30.9 | 0.32
CCCCN1CCC(N(CCc2ccccc2)Cc2ccccc2)CC1 [Butyl, N-Benzyl-1-butyl-N-phenethylpiperidin-4-amine] | – | 17.9 | 1.55
[2H]C([2H])([2H])CN1CCC(N(CCc2ccccc2)Cc2ccccc2)CC1 [CD3CH2—, N-Benzyl-1-ethyl(2,2,2-d3)-N-phenethylpiperidin-4-amine] | – | 50.8 | 2.37
[2H]C([2H])([2H])N1CCC(N(CCc2ccccc2)Cc2ccccc2)CC1 [CD3—, N-Benzyl-1-methyl(d3)-N-phenethylpiperidin-4-amine] | – | 100 | 7.95
FC(F)(F)CN1CCC(N(CCc2ccccc2)Cc2ccccc2)CC1 [CF3CH2—, N-Benzyl-N-phenethyl-1-(2,2,2-trifluoroethyl)piperidin-4-amine] | – | > 100 | > 31.6
Ic1ccc(CN2CCC(N(CCc3ccccc3)Cc3ccccc3)CC2)cc1 [Compound 4-Iodobenzyl, N-Benzyl-1-(4-iodobenzyl)-N-phenethylpiperidin-4-amine] | – | > 100 | 2.98
c1ccc(CCN(Cc2ccccc2)C2CCN(C3CCCCC3)CC2)cc1 [Cyclohexyl, N-Benzyl-1-cyclohexyl-N-phenethylpiperidin-4-amine] | – | 33.8 | 1.5
c1ccc(CCN(Cc2ccccc2)C2CCN(C3CCCC3)CC2)cc1 [Cyclopentyl, N-Benzyl-1-cyclopentyl-N-phenethylpiperidin-4-amine] | – | 15 | 0.48
CCN1CCC(N(CCc2ccccc2)Cc2ccccc2)CC1 [Et, N-Benzyl-1-ethyl-N-phenethylpiperidin-4-amine] | – | 35.3 | 0.039
c1ccc(CCN(Cc2ccccc2)C2CCNCC2)cc1 [H, N-Benzyl-N-phenethylpiperidin-4-amine] | – | 23.5 | 0.12
